Test results published in US10201536B2, “Methods and pharmaceutical compositions for the treatment of bacterial infections in patients suffering from cirrhosis” (INSERM (INSTITUT NATIONAL DE LA SANTE ET DE LA RECHERCHE …, priority 2015, dated 2019).
Residues, ends and D or L forms follow the SMILES beside them. *: point of attachment. MeOSuc = COC(=O)CCC(=O)*; CH2Cl = ClC*

Experiments:
Assay type in all cases: cell-based
neutrophil elastase [1] = target: T1, neutrophil elastase (Homo sapiens, UniProt P08246); assay: gp91phox degradation in healthy PMN by cell-free degranulation supernatant with elastase inhibitor; conditions: 100 μM 15 min pretreatment, 45 min supernatant
T1 construct: a cell-free degranulation supernatant obtained from fMLP (1 μM, 2 min) stimulated PMN; endogenous in cells; host or cells: healthy human PMN stimulated with fMLP, or their cell-free degranulation supernatant
T1 sequence (P08246 30-267): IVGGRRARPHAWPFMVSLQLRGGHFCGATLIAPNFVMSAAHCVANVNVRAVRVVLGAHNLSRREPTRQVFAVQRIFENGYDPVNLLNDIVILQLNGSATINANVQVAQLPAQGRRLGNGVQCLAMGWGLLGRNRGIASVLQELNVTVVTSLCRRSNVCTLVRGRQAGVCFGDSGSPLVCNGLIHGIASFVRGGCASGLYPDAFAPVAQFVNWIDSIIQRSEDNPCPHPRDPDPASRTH
Method: (§1) FIG. 8. Elastase induces the degradation of gp91phox and p22phox in healthy PMN. (A and B) Western-blot analysis and densitometric quantification of gp91phox and p22phox in healthy PMN treated in the absence or presence of elastase at 0.1 and 0.5 units for 1 hour. (C and D) Western-blot analysis densitometric quantification of gp91phox and […] in healthy PMN treated in the absence or presence of the elastase inhibitor (NEI) at 100 μM for 15 min before stimulation with fMLP (1 μM) for 45 min. (E) Western-blot analysis densitometric quantification of gp91phox in healthy PMN pretreated in the absence or presence of the elastase inhibitor (NEI) at 100 μM for 15 min before incubation for 45 min with a cell-free degranulation supernatant obtained from fMLP (1 μM, 2 min) stimulated PMN. Blots are representative of 4 experiments and densitometric analyses are cumulative and expressed as percentage of the actin level. […] (F) Sensorgrams of the PMN specific binding and dissociation to the anti-gp91phox antibody (7D5) coated to the CM3 sensorchip, analysed with the Biacore X100, as a function of time. […] Data are representative of 3 independent experiments are expressed as resonance unit (RU). (G) Flow cytometry quantification of the Gp91phox expression at the surface of PMN treated or not (Control) with 0.5 unit Elastase at 4° C. […]

elastase [2] = target: T2, elastase (Homo sapiens, UniProt P08246); assay: gp91phox surface expression of healthy PMN treated with plasma from cirrhotic patients, with NEI; conditions: 12 H, 25% plasma, 100 μM
T2 construct: with plasma of healthy volunteers or cirrhotic patients, (25% plasma in 1 ml RPMI containing 5×10^6 PMN); from tissue; host or cells: plasma of cirrhotic patients, incubated with healthy human PMN
T2 sequence (P08246 30-267): T1 sequence (P08246 30-267)
Method: (§2) FIG. 9. Plasma from cirrhotic patients reduces gp91phox expression at the surface of healthy PMN and ROS production in NEI-sensitive manner. PMN were pretreated for 12 H at 37° C. with RPMI (control) or with plasma of healthy volunteers or cirrhotic patients, (25% plasma in 1 ml RPMI containing 5×10^6 PMN) either in the absence or presence of the elastase inhibitor NEI (100 μM). PMN were labelled with the anti-gp91phox FITC-coupled antibody. (A) Quantification of the number of positive cells labeled with the anti-gp91phox FITC-coupled antibody (7D5) by Flow cytometry, expressed as percentage of control values. […] (C, D) Time course production of superoxide induced by PMA by healthy PMN which were pretreated for 12 H in the absence (Buffer/RPMI) or presence of plasma from healthy volunteers and cirrhotic patients, either with or without 100 μM NEI. (E) Production of superoxide expressed as percentage of control values (mean±SEM, n=5). […]
(§3) Granulocyte elastase is released during infectious processes and has been proposed to be helpful for the diagnosis of patients with spontaneous bacterial peritonitis (Casafon et al., 1999), a major complication of the alcoholic liver cirrhosis. […] Consistent with this observation, patients' plasmas inhibited NOX2 activity of PMN measured by the cytochrome C assay (FIGS. 9C-E) and chemiluminescence.

elastase [3] = target: T2, elastase; assay: NOX2 activity (superoxide production) of healthy PMN treated with plasma from cirrhotic patients, with NEI; conditions: 12 H, 25% plasma, 100 μM, PMA-induced superoxide
Method: as §2, §3

neutrophil elastase [4] = target: T1, neutrophil elastase; assay: fMLP-induced depletion of gp91phox and p22phox in healthy PMN with elastase inhibitor; conditions: 100 μM 15 min before fMLP (1 μM) 45 min
Method: as §1

COC(=O)CCC(=O)N[C@@H](C)C(=O)N[C@@H](C)C(=O)N1CCC[C@H]1C(=O)N[C@H](C(=O)CCl)C(C)C [NEI, MeOSuc-AAPV-CMK] (MeOSuc-AAPV-CH2Cl)
gp91phox degradation by cell-free degranulation supernatant (neutrophil elastase [1]): blocked gp91phox degradation
decrease of gp91phox positive cells and surface expression caused by patients' plasma (elastase [2]): prevented
inhibition of NOX2 activity by patients' plasma (elastase [3]): prevented the inhibitory effects
fMLP-induced depletion of gp91phox and p22phox (neutrophil elastase [4]): prevented
